Reference: ChEMBL document CHEMBL2169755, “A Divergent SAR Study Allows Optimization of a Potent 5-HT2c Inhibitor to a Promising Antimalarial Scaffold” (ACS Med Chem Lett, 2012)
Converted amounts (≈) assume the structure as drawn. The source made the active and inactive calls. The rule behind the calls is not given here.

Legend:
Plasmodium falciparum [1] = assay: microbe, parasite or virus in culture; settings: 3D7 A
Description: Antiplasmodial activity against Plasmodium falciparum 3D7A assessed as inhibition of [3H]hypoxanthine incorporation incubated for 24 hrs prior to [3H]hypoxanthine addition measured after 24 hrs by beta scintillation counting

Plasmodium falciparum [2] = assay: Antiplasmodial activity against Plasmodium falciparum Dd2 assessed as inhibition of [3H]hypoxanthine incorporation incubated for 24 hrs prior to [3H]hypoxanthine addition measured after 24 hrs by beta scintillation counting; type: functional, organism-based
[3] = biological target: T1, 5-hydroxytryptamine receptor 2C (Homo sapiens, UniProt P28335); assay: Inhibition of human 5HT2c receptor expressed in CHO-K1 cells assessed as inhibition of 5HT-induced calcium influx measured up to 30 secs by aequorin luminescence assay; type: functional, cell-based
T1 sequence (P28335 whole entry): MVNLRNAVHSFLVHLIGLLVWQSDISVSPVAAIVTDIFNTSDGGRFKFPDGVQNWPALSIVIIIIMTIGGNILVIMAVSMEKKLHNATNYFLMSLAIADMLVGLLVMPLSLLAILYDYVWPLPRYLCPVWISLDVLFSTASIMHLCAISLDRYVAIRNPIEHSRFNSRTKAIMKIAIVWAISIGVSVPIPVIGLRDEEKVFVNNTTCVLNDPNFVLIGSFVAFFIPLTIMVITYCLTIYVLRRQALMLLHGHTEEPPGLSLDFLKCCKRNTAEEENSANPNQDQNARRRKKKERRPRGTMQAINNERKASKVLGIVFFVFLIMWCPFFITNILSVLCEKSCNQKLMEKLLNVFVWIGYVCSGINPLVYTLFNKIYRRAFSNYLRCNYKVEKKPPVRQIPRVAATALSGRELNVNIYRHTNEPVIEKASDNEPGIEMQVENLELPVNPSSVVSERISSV

Liver = assay: Intrinsic clearance in mouse liver microsomes at 0.5 uM by HPLC analysis; type: ADME, Microsome
[4] = Equilibrium solubility of the compound in fasted state simulated intestinal fluid after 24 hrs by LC-MS analysis at pH 6.8; type: physicochemical
Plasmodium falciparum [5] = assay: Antiplasmodial activity against Plasmodium falciparum HB3 assessed as inhibition of [3H]hypoxanthine incorporation incubated for 24 hrs prior to [3H]hypoxanthine addition measured after 24 hrs by beta scintillation counting; type: functional, organism-based
[6] = Equilibrium solubility of the compound in simulated gastric fluid after 24 hrs by LC-MS analysis at pH1.2; type: physicochemical; settings: pH 1.2
Cytochrome P450 2C19 = Cytochrome P450 2C19 (Homo sapiens, UniProt P33261); assay: Inhibition of human CYP2C19 using 3-butyryl-7-methoxycoumarin as substrate incubated for 30 mins prior to substrate addition measured up to 10 mins by fluorimetry; type: ADME
Cytochrome P450 2C19, sequence (P33261 whole entry): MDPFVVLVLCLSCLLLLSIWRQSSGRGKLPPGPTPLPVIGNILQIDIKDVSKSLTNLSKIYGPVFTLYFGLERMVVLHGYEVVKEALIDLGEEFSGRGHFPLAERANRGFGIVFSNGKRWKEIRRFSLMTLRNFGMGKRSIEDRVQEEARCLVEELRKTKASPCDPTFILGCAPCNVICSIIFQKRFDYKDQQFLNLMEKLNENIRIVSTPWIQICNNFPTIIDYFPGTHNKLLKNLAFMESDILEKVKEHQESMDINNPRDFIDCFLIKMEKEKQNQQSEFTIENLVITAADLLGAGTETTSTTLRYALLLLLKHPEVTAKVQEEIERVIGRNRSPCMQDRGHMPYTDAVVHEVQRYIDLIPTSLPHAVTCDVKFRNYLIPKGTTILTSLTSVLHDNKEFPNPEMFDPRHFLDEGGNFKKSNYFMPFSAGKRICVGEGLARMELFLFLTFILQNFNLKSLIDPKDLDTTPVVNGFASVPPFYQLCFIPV

[7] = Plasma protein binding in mouse at 1 ug/mL by equilibrium dialysis method; type: ADME, cell-free; settings: read-out: PPB (converted)
[8] = Cytotoxicity against MDCK cells after 48 hrs by resazurin reduction assay; type: cell-based, Canis lupus familiaris; settings: dog, read-out: TC50
Plasmodium falciparum [9] = assay: Selectivity ratio of IC50 for Plasmodium falciparum Dd2 to IC50 for Plasmodium falciparum HB3; type: functional
Cytochrome P450 2D6 = Cytochrome P450 2D6 (Homo sapiens, UniProt P10635); assay: Inhibition of human CYP2D6 using 4-methylaminomethyl-7-methoxycoumarin as substrate incubated for 30 mins prior to substrate addition measured up to 10 mins by fluorimetry; type: ADME
Cytochrome P450 2D6, sequence (P10635 whole entry): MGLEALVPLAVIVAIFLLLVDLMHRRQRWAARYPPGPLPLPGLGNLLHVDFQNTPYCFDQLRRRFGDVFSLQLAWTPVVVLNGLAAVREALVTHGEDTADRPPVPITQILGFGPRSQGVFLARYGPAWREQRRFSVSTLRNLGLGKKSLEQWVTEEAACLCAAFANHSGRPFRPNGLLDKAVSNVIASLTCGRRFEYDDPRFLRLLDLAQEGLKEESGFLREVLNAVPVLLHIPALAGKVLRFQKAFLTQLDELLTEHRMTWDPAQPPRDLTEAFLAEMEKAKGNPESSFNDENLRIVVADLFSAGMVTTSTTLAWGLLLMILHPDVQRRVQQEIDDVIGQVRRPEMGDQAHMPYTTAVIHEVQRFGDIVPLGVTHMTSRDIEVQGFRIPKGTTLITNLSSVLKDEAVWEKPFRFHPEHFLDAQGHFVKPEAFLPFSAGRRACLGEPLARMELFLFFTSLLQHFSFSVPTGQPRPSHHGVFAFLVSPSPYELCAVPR

Plasmodium falciparum [10] = assay: Antiplasmodial activity against Plasmodium falciparum assessed as pyknotic phenotype at 10-fold IC50 after 24 hrs by Giemsa-staining method; type: functional, organism-based
[11] = Equilibrium solubility of the compound in phosphate buffer saline after 24 hrs by LC-MS analysis at pH 7.4; type: physicochemical
[12] = Equilibrium solubility of the compound in fed state simulated intestinal fluid after 24 hrs by LC-MS analysis at pH 5; type: physicochemical
[13] = Chromatographic hydrophobicity index of the compound at pH 7.4; type: physicochemical
[14] = Chromatographic hydrophobicity index of the compound at pH 2; type: physicochemical
Cytochrome P450 2C9 = Cytochrome P450 2C9 (Homo sapiens, UniProt P11712); assay: Inhibition of human CYP2C9 using 7-methoxy-4-triflouromethylcoumarin-3-acetic acid as substrate incubated for 30 mins prior to substrate addition measured up to 10 mins by fluorimetry; type: ADME
Cytochrome P450 2C9, sequence (P11712 whole entry): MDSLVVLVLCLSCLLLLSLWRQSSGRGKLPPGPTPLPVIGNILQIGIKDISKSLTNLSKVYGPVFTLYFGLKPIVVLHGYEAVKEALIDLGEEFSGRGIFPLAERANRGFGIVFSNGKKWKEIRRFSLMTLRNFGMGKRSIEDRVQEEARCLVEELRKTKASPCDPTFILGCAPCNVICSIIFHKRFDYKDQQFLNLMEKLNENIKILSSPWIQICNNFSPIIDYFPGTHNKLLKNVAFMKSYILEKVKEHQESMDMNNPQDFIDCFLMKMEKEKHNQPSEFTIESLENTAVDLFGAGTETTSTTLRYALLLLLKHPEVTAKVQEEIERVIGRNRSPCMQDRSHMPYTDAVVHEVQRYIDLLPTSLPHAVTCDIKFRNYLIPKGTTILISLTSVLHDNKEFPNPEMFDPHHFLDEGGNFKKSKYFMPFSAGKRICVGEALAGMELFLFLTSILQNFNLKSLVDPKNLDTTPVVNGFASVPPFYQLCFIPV

[15] = Cytotoxicity against mouse L1210 cells after 48 hrs by resazurin reduction assay; type: cell-based; settings: read-out: TC50
[16] = Cytotoxicity against mouse Neuro2a cells after 48 hrs by resazurin reduction assay; type: cell-based, N2a; settings: read-out: TC50
[17] = Cytotoxicity against human HepG2 cells after 48 hrs by resazurin reduction assay; type: cell-based; settings: read-out: TC50
Plasmodium falciparum [18] = assay: Antiplasmodial activity against Plasmodium falciparum 3D7A assessed as inhibition of [3H]hypoxanthine incorporation after 96 hrs by beta scintillation counting; type: functional, organism-based; settings: 3D7 A
Liver microsomes = assay: Intrinsic clearance in human liver microsomes at 0.5 uM by HPLC analysis; type: ADME, Microsome
[19] = biological target: Voltage-gated inwardly rectifying potassium channel KCNH2 (Homo sapiens, UniProt Q12809); assay: Displacement of Cy3b-tagged dofetilide from human ERG expressed in CHO cells by fluorescence polarization assay
Voltage-gated inwardly rectifying potassium channel KCNH2, sequence (Q12809 whole entry): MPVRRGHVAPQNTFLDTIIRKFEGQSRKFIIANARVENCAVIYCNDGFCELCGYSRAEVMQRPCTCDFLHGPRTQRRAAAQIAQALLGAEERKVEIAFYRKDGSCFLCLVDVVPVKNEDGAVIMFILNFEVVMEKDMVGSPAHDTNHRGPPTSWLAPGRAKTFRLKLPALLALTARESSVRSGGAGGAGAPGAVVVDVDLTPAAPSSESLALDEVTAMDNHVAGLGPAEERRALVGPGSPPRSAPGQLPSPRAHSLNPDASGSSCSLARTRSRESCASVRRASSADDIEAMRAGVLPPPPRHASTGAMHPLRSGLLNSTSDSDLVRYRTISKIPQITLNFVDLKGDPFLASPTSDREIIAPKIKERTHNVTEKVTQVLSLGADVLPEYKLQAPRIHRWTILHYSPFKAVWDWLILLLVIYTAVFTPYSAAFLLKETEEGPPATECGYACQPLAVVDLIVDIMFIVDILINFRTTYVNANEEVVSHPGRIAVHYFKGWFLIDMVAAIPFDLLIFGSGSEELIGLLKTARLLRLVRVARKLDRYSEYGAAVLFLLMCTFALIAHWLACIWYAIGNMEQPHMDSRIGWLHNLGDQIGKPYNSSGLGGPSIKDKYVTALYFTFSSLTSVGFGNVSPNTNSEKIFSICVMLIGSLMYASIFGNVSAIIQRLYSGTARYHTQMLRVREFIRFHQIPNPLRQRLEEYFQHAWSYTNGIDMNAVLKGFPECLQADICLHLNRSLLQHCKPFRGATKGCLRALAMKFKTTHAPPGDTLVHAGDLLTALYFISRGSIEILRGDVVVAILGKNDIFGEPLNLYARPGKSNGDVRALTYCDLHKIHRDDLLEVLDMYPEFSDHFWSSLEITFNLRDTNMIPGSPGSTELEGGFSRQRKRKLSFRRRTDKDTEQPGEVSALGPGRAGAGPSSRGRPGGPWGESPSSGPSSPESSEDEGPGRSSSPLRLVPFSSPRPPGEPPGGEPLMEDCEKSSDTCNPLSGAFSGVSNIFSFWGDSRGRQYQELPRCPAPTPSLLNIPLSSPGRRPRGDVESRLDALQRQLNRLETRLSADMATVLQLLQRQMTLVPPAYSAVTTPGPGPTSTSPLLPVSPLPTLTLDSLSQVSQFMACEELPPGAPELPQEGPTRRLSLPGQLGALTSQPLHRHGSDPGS

[20] = Cytotoxicity against rat H9c2(2-1) cells after 48 hrs by resazurin reduction assay; type: cell-based; settings: read-out: TC50
Plasmodium falciparum [21] = assay: Antiplasmodial activity against Plasmodium falciparum 3D7A assessed as inhibition of [3H]hypoxanthine incorporation after 72 hrs by beta scintillation counting; type: functional, organism-based; settings: 3D7 A
[22] = Chromatographic hydrophobicity index of the compound at pH 10.5; type: physicochemical
Cytochrome P450 3A4 = Cytochrome P450 3A4 (Homo sapiens, UniProt P08684); assay: Inhibition of human CYP3A4 using 7-benzyloxyquinoline as substrate incubated for 30 mins prior to substrate addition measured up to 10 mins by fluorimetry; type: ADME
Cytochrome P450 3A4, sequence (P08684 whole entry): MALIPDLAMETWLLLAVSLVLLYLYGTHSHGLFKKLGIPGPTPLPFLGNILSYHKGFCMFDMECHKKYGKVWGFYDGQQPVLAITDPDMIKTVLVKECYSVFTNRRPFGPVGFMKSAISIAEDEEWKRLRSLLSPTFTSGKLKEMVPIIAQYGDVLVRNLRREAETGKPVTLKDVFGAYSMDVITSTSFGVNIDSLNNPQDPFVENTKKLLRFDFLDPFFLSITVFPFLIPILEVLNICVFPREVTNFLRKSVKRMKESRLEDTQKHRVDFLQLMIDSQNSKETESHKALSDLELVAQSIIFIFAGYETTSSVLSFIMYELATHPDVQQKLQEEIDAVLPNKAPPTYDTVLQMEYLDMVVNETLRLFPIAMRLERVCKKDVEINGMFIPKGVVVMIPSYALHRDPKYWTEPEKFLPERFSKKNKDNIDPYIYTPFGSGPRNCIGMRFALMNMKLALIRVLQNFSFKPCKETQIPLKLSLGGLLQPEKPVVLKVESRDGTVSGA

Albumin = Albumin (Homo sapiens, UniProt P02768); assay: Binding affinity to human serum albumin by HPLC analysis; type: ADME; settings: isolated protein
Albumin, sequence (P02768 whole entry): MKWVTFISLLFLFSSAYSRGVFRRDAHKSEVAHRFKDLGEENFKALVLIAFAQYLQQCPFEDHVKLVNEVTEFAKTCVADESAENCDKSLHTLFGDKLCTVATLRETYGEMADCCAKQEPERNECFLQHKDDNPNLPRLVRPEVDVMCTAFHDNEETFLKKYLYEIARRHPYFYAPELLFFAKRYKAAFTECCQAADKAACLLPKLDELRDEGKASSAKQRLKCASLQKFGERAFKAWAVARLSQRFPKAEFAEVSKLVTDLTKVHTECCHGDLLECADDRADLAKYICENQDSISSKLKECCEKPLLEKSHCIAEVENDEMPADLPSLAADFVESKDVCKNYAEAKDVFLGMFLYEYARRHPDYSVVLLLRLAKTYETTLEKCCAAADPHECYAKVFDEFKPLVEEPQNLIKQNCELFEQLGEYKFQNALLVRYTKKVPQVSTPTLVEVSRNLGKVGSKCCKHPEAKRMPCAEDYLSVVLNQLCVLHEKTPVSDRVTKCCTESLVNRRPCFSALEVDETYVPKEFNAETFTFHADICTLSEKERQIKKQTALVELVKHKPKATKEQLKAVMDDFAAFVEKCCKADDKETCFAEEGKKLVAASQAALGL

Plasmodium falciparum [23] = assay: Antiplasmodial activity against Plasmodium falciparum assessed as pyknotic phenotype after 24 hrs by Giemsa-staining method; type: functional, organism-based
Plasmodium berghei [24] = assay: Antimalarial activity against Plasmodium berghei ANKA infected in CD1 mouse assessed as inhibition of parasitemia at 50 mg/kg, po administered QD for 2 days measured after 4 days by YOYO1-based flow cytometric analysis relative to vehicle-treated control; type: functional
Plasmodium berghei [25] = assay: Antimalarial activity against Plasmodium berghei ANKA assessed as reduction in viable parasites at 10 times IC50 after 72 hrs; type: functional, organism-based

## COc1cc2c(cc1C(F)(F)F)N(C(=O)Nc1cc(Br)cc(-c3cccnc3)c1)CC2
Plasmodium falciparum [1]
  IC50: 160 nM
Plasmodium falciparum [2]
  IC50: 1100 nM
[3]
  IC50: 10 nM

## COc1cc2c(cc1C(F)(F)F)N(C(=O)Nc1cc(OC(F)(F)F)cc(-c3cc[nH]c3)c1)CC2
Plasmodium falciparum [1]
  IC50: 1070 nM

## COc1cc2c(cc1C(F)(F)F)N(C(=O)Nc1cc(C)cc(OC(F)(F)F)c1)CC2
Plasmodium falciparum [1]
  IC50: > 5000 nM

## O=C(Nc1cc(OC(F)(F)F)cc(-c2cccnc2)c1)N1CCc2cc(C(F)(F)F)ccc21
Plasmodium falciparum [1]
  IC50: 20 nM

## COc1cc2c(cc1C(F)(F)F)N(C(=O)Nc1cc(F)cc(-c3cccnc3)c1)CC2
Plasmodium falciparum [1]
  IC50: 430 nM
Plasmodium falciparum [2]
  IC50: 2120 nM
[3]
  IC50: 10 nM

## COc1cc2c(cc1C(F)(F)F)N(C(=O)Nc1cc(OC(F)(F)F)cc(-c3ccc(C)nc3)c1)CC2
Plasmodium falciparum [1]
  IC50: 290 nM
Plasmodium falciparum [2]
  IC50: 800 nM

## O=C(Nc1cc(OC(F)(F)F)cc(-c2cccnc2)c1)N1CCc2ccc(CO)cc21
Plasmodium falciparum [1]
  IC50: 400 nM
[3]
  IC50: 180 nM

## Cc1cc2c(cc1Cl)N(C(=O)Nc1cc(OC(F)(F)F)cc(-c3cccnc3)c1)CC2
Plasmodium falciparum [1]
  IC50: 20 nM
Plasmodium falciparum [2]
  IC50: 140 nM

## O=C(Nc1cc(OC(F)(F)F)cc(-c2cccnc2)c1)N1CCc2cccc(F)c21
Plasmodium falciparum [1]
  IC50: 410 nM
Plasmodium falciparum [2]
  IC50: 1070 nM
[3]
  IC50: > 40000 nM

## COc1cc2c(cc1C(F)(F)F)N(C(=O)Nc1cc(OC(F)(F)F)cc(-c3cccnc3)c1)CC2
Liver
  CLH: < 0.3 mL/min/g
[4]
  solubility thermodynamic at 24 h: < 0.1 µg/mL
Plasmodium falciparum [5]
  IC50: 90 nM
[6]
  solubility thermodynamic at 24 h: 1550 µg/mL (≈ 3120 µM)
Cytochrome P450 2C19
  IC50: > 50000 nM
[7]
  fraction unbound at 1 ug/mL: 0.002
[8]
  CC50 at 48 h: > 12500 nM
Plasmodium falciparum [9]
  Ratio IC50: >10
Cytochrome P450 2D6
  IC50: 13000 nM
Plasmodium falciparum [10]
  Activity: Active
[11]
  solubility thermodynamic at 24 h: < 0.1 µg/mL
[12]
  solubility thermodynamic at 24 h: 16.7 µg/mL (≈ 33.6 µM)
[13]
  CHI: 4.22
[14]
  CHI: 3.09
Plasmodium falciparum [2]
  IC50: > 1000 nM
Cytochrome P450 2C9
  IC50: 2000 nM
[15]
  CC50 at 48 h: 3200 nM
[16]
  CC50 at 48 h: > 12500 nM
[17]
  CC50 at 48 h: 7000 nM
Plasmodium falciparum [18]
  IC50: 25 nM
[3]
  IC50: 50 nM
Liver microsomes
  CLH: < 0.3 mL/min/g
[19]
  Activity: > 16 µM
[20]
  CC50 at 48 h: > 12500 nM
Plasmodium falciparum [21]
  IC50: 40 nM
[22]
  CHI: 4.18
Cytochrome P450 3A4
  IC50: > 50000 nM
Albumin
  Activity: 97.8%

## CCN(CC)CCCC(C)Nc1ccnc2cc(Cl)ccc12 (stereo unspecified)
Plasmodium falciparum [23]
  Activity: Active

## CN1CCN(c2cc3c(cc2Cl)CCN3C(=O)Nc2cc(OC(F)(F)F)cc(-c3cccnc3)c2)CC1
Plasmodium berghei [24]
  inhibition in vivo at 50 mg/kg: 35%
Plasmodium falciparum [1]
  IC50: 140 nM
Plasmodium falciparum [2]
  IC50: 210 nM
Plasmodium berghei [25]
  Activity: Active
[3]
  IC50: 10000 nM

## O=C(Nc1cc(OC(F)(F)F)cc(-c2cccnc2)c1)N1CCc2cc(F)ccc21
Plasmodium falciparum [1]
  IC50: 10 nM

## COc1cc2c(cc1C(F)(F)F)N(C(=O)Nc1cc(Br)cc(OC(F)(F)F)c1)CC2
Plasmodium falciparum [1]
  IC50: 4840 nM
[3]
  IC50: 390 nM

## CN1CCN(c2ccc3c(c2)N(C(=O)Nc2cc(OC(F)(F)F)cc(-c4cccnc4)c2)CC3)CC1
Plasmodium falciparum [1]
  IC50: 490 nM
[3]
  IC50: > 40000 nM

## O=C(Nc1cc(OC(F)(F)F)cc(-c2cccnc2)c1)N1CCc2ccccc21
Plasmodium falciparum [1]
  IC50: 10 nM
Plasmodium falciparum [2]
  IC50: 20 nM
[3]
  IC50: 1250 nM

## COc1cc2c(cc1C(F)(F)F)N(C(=O)Nc1cc(OC(F)(F)F)cc(-c3cncnc3)c1)CC2
Plasmodium falciparum [1]
  IC50: 30 nM
Plasmodium falciparum [2]
  IC50: > 1000 nM

## O=C(Nc1cc(OC(F)(F)F)cc(-c2cccnc2)c1)N1CCc2ccc(F)cc21
Liver
  CLH: 2.1 mL/min/g
Plasmodium falciparum [1]
  IC50: 10 nM
Plasmodium falciparum [2]
  IC50: 10 nM
[3]
  IC50: 600 nM
Liver microsomes
  CLH: 0.5 mL/min/g

## COc1ccc2c(c1)N(C(=O)Nc1cc(OC(F)(F)F)cc(-c3cccnc3)c1)CC2
Plasmodium falciparum [1]
  IC50: 90 nM
[3]
  IC50: 120 nM

## O=C(Nc1cc(OC(F)(F)F)cc(-c2cccnc2)c1)N1CCc2ccc(Cl)cc21
Plasmodium falciparum [1]
  IC50: 150 nM

## COc1cc2c(cc1C(F)(F)F)N(C(=O)Nc1cc(-c3cccnc3)cc(C(F)(F)F)c1)CC2
Plasmodium falciparum [1]
  IC50: 140 nM
Plasmodium falciparum [2]
  IC50: 810 nM
[3]
  IC50: 10 nM

## COc1cc2c(cc1C(F)(F)F)N(C(=O)Nc1cccc(OC(F)(F)F)c1)CC2
Plasmodium falciparum [1]
  IC50: > 5000 nM

## CCc1nc(N)nc(N)c1-c1ccc(Cl)cc1 [PYRIMETHAMINE]
Plasmodium falciparum [1]
  IC50: 20 nM
Plasmodium falciparum [2]
  IC50: > 40000 nM

## COc1cc2c(cc1C(F)(F)F)N(C(=O)Nc1cccc(-c3cccnc3)c1)CC2
Plasmodium falciparum [1]
  IC50: 4450 nM
[3]
  IC50: 7 nM

## O=C(Nc1cc(OC(F)(F)F)cc(-c2cccnc2)c1)N1CCc2ccc(Br)cc21
Plasmodium falciparum [1]
  IC50: 190 nM
Plasmodium falciparum [2]
  IC50: 640 nM

## COc1cc2c(cc1C(F)(F)F)N(C(=O)Nc1cc(OC(F)(F)F)cc(-c3ccccc3)c1)CC2
Plasmodium falciparum [1]
  IC50: 2260 nM

## C[C@@H]1CC[C@H]2[C@@H](C)C(=O)O[C@@H]3O[C@@]4(C)CC[C@@H]1[C@]32OO4 [ARTEMISININ]
Plasmodium falciparum [1]
  IC50: 20 nM
Plasmodium falciparum [23]
  Activity: Active

## Cc1ccc2c(c1)CCN2C(=O)Nc1cc(OC(F)(F)F)cc(-c2cccnc2)c1
Plasmodium falciparum [1]
  IC50: 10 nM
Plasmodium falciparum [2]
  IC50: 40 nM

## Cc1ccc2c(c1)N(C(=O)Nc1cc(OC(F)(F)F)cc(-c3cccnc3)c1)CC2
Plasmodium falciparum [1]
  IC50: 30 nM
